In PMC4109680, “Identification and Preclinical Pharmacology of the γ-Secretase Modulator BMS-869780” (International Journal of Alzheimer's Disease, 2014):

Legend:
brain Aβ1-42 = assay: Rat time course PK/PD, oral dose, indirect response model; assay type: in vivo; details: Rat 3 mg/kg PO solution (predicted steady state after 3 daily doses)
CYP3A4 mRNA = CYP3A4 mRNA expression in primary human hepatocytes; assay type: cell-based; details: two donors, relative to rifampicin 10 μM
Protocol: Figure 10 BMS-869780 caused PXR activation in vitro and lipidosis in rat liver. (a) PXR activation in the presence of BMS-869780 was evaluated in HepG2 cell cultures using a luciferase transcriptional reporter construct (●), or by assay of CYP3A4 mRNA levels in primary human hepatocyte (PHH) cultures from two individual donors (▲ and ▼). Activation in both assays is expressed as % relative to activation in the presence of rifampicin, 10 μM, in parallel cultures. (b) Liver section from vehicle-dosed rats. (c) Liver section from rats given 4 daily doses of BMS-869780 at 100 mg/kg.

[1] = Plasma protein bound fraction, rat; assay type: in vitro ADME
Aβ1-40 (MEF M146V) = assay: Aβ1-40 ELISA in MEF dKO cultures cotransfected with APP-CTF and human presenilin-1 M146V allele; assay type: cell-based
Protocol: H4-APPsw cell cultures were maintained on Dulbecco's modified Eagle's medium (DMEM) supplemented with L-glutamine (2 mM), fetal bovine serum (10%), and G418 (100 μg/mL). […] Aβ1-42 and Aβ1-40 assays, and Notch inhibition assays, were carried out as described previously. Mouse embryonic fibroblasts deficient in PS1 and PS2 (MEF dKO) were passaged twice per week in DMEM/F-12 medium, consisting of a 1 : 1 mixture of DMEM and F-12 nutrient mixture supplemented with 10% fetal bovine serum, penicillin, and streptomycin. For expression of human presenilin-1 in MEF dKO cells, the full length human presenilin-1 cDNA open reading frame was cloned between the BamHI and XhoI sites of the vector pcDNA5/FRT (Invitrogen), placing presenilin-1 expression under the control of the CMV promoter. […]
IC50 determinations for Aβ1-42 and Aβ1-40 in H4-APPsw cultures in 384-well format were determined using homogeneous time-resolved fluorescence immunoassays as previously described. […] In other experiments using H4-APPsw cultures, Aβ was quantified by ELISA; for Aβ1-42 the combination of monoclonal antibodies was 26D6 and 565-HRP; for Aβ1-40 it was TSD and 26D6-HRP, and for Aβ1-x it was 4G8 and 26D6-HRP. […] For Aβ in transiently transfected PS1/PS2 dKO fibroblasts, Aβ1-42 was quantified using an ELISA kit (WACO), and Aβ1-40 was quantified by ELISA as described above for H4-APPsw cultures. […]

## COc1cc(Nc2nc3n(n2)CCCC[C@H]3c2ccc(F)cc2)ccc1-n1cnc(Cl)c1 [BMS-869780]
Brain Aβ1-42
  Brain Aβ ABEC 24 hr Aβ1-42: 26.9%
  Plasma AUC 0–24 hr: 18.6 µM·h
CYP3A4 mRNA
  concentrations at which CYP3A4 mRNA transcription was activated: ≥ 300 nM
[1]
  protein bound fraction: 99.5%
Aβ1-40 (MEF M146V); Homo sapiens, presenilin-1 M146V allele
  IC50: 34 nM
Aβ1-40 (MEF M146V); MEF cultures
  Aβ1-40 IC50 shift in M146V allele relative to wild type presenilin: ca. 3 fold
